One test concerns the target Human plasma kallikrein (Homo sapiens (Human), UniProt P03952). The test can be described thus: Determination of the IC50 for plasma kallikrein (fluorogenic substrate H-DPro-Phe-Arg-AFC). The format is biochemical. To be noted: 37° C., read-out: IC50 (human PKaI). The protocol:
Determination of the IC50 for Plasma Kallikrein
Human plasma kallikrein (Protogen) was incubated at 37° C. with the fluorogenic substrate H-DPro-Phe-Arg-AFC and various concentrations of the test compound. Residual enzyme activity (initial rate of reaction) was determined by measuring the change in […] at 410 nm and the IC50 value for the test compound was determined.

Another test deals with Human KLK1 (Homo sapiens (Human), UniProt P06870). The test can be described thus: Determination of the IC50 for KLK1 (fluorogenic substrate H-DVal-Leu-Arg-AFC). The format is biochemical. To be noted: 37° C. As to the method:
Determination of the IC50 for KLK1
Human KLK1 (Callbiochem) was incubated at 37° C. with the fluorogenic substrate H-DVal-Leu-Arg-AFC and various concentrations of the test compound. Residual enzyme activity (initial rate of reaction) was determined by measuring the change in […] at 410 nm and the IC50 value for the test compound was determined.

By IC50 is commonly meant the concentration that inhibits the measured activity by half.

Structures are written as SMILES.

Chain of Human plasma kallikrein (P03952 391-638): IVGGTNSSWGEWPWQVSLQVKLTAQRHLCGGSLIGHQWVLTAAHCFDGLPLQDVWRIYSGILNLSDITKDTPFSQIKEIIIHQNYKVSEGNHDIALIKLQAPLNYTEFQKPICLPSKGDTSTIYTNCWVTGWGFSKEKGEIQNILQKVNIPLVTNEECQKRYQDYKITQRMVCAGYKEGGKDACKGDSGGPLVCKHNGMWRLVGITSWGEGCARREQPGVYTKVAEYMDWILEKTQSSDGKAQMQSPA
Chain of Human plasma kallikrein (P03952 20-390 partner): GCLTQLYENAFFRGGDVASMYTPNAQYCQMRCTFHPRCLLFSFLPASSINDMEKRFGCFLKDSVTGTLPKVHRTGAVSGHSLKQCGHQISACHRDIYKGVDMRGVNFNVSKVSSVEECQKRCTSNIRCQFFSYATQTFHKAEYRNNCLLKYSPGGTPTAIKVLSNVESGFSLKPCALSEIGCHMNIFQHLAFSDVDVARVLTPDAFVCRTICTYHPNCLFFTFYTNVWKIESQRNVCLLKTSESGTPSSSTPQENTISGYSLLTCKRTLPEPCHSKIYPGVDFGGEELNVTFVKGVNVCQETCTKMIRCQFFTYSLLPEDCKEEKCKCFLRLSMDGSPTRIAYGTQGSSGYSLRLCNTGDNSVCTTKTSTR
Chain of Human KLK1 (P06870 25-262): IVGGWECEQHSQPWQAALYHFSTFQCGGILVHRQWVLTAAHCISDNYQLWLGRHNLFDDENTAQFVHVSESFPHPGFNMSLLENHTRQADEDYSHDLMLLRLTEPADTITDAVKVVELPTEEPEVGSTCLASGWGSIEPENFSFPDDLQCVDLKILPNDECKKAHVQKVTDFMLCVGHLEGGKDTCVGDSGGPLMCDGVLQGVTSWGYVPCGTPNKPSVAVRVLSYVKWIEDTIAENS

With `COc1cc(N2CCCC2)ncc1Cn1cc(C(=O)NCc2ccc3c(N)nccc3c2)c(C2CC2)n1` [Example 89, 3-Cyclopropyl-1-(4-methoxy-6-pyrrolidin-1-yl-pyridin-3-ylmethyl)-1H-pyrazole-4-carboxylic acid (1-amino-isoquinolin-6-ylmethyl)-amide], the IC50 at Human plasma kallikrein stood at 17.8 nM; at Human KLK1, 0.96 µM.

In the case of `Nc1nccc2cc(CNC(=O)c3cn(Cc4ccc(N5CC[C@@H](CO)C5)nc4)nc3C(F)(F)F)ccc12` [Example 70, 1-[6-((R)-3-Hydroxymethyl-pyrrolidin-1-yl)-pyridin-3-ylmethyl]-3-trifluoromethyl-1H-pyrazole-4-carboxylic acid (1-amino-isoquinolin-6-ylmethyl)-amide], the concentration for half-maximal inhibition (IC50) at Human plasma kallikrein came out at 66.9 nM; at Human KLK1 it was 4.91 µM.

As to `Nc1nccc2cc(CNC(=O)c3cn(Cc4cnc(N5CCCC5)cn4)nc3C(F)(F)F)ccc12` [Example 65, 1-(5-Pyrrolidin-1-yl-pyrazin-2-ylmethyl)-3-trifluoromethyl-1H-pyrazole-4-carboxylic acid (1-amino-isoquinolin-6-ylmethyl)-amide], the figures for the half-inhibitory concentration (IC50) on Human plasma kallikrein and at Human KLK1 were 14.9 nM and 0.96 µM, respectively.

On to `O=C(NCc1cnc2[nH]ccc2c1)c1cn(Cc2ccc(Cn3ccccc3=O)cc2)nc1C(F)(F)F` [Example 7, 1-[4-(2-Oxo-2H-pyridin-1-ylmethyl)-benzyl]-3-trifluoromethyl-1H-pyrazole-4-carboxylic acid (1H-pyrrolo[2,3-b]pyridin-5-ylmethyl)-amide], for which the IC50 at Human plasma kallikrein is 5.38 nM; against Human KLK1, greater than 10 µM.

`N#Cc1cnn(Cc2ccc(Cn3cc(C(=O)NCc4ccc5c(N)nccc5c4)c(C(F)(F)F)n3)cc2)c1` [Example 77, 1-[4-(4-Cyano-pyrazol-1-ylmethyl)-benzyl]-3-trifluoromethyl-1H-pyrazole-4-carboxylic acid (1-amino-isoquinolin-6-ylmethyl)-amide]: the values for the concentration for half-maximal inhibition (IC50) at Human plasma kallikrein and against Human KLK1 were 85.4 nM and greater than 10 µM, respectively.

As for `Nc1nccc2cc(CNC(=O)c3cn(Cc4ccc(N5CCC(F)(F)C5)nc4)nc3C3CC3)ccc12` [Example 87, 3-Cyclopropyl-1-[6-(3,3-difluoro-pyrrolidin-1-yl)-pyridin-3-ylmethyl]-1H-pyrazole-4-carboxylic acid (1-amino-isoquinolin-6-ylmethyl)-amide], the results for the IC50 at Human plasma kallikrein and at Human KLK1 were 23.2 nM and 6.46 µM, respectively.

For `Cc1cnn(Cc2ccc(Cn3c(C)cc(C(=O)NCc4ccc5c(N)nccc5c4)c3C)cc2)c1` [Example 9, 2,5-Dimethyl-1-[4-(4-methyl-pyrazol-1-ylmethyl)-benzyl]-1H-pyrrole-3-carboxylic acid (1-amino-isoquinolin-6-ylmethyl)-amide], the IC50 is 14.3 nM on Human plasma kallikrein and greater than 10 µM on Human KLK1.

With `Cc1cnn(Cc2ccc(Cn3cc(C(=O)NCc4cnc5[nH]ccc5c4)c(C(F)(F)F)n3)cc2)c1` [Example 121, 1-[4-(4-Methyl-pyrazol-1-ylmethyl)-benzyl]-3-trifluoromethyl-1H-pyrazole-4-carboxylic acid (1H-pyrrolo[2,3-b]pyridin-5-ylmethyl)-amide], the IC50 is 62 nM on Human plasma kallikrein and greater than 10 µM against Human KLK1.

For `COCCN(C)c1ccc(Cn2cc(C(=O)NCc3ccc4c(N)nccc4c3)c(C3CC3)n2)cn1` [Example 86, 3-Cyclopropyl-1-{6-[(2-methoxy-ethyl)-methyl-amino]-pyridin-3-ylmethyl}-1H-pyrazole-4-carboxylic acid (1-amino-isoquinolin-6-ylmethyl)-amide], the values for the concentration for half-maximal inhibition (IC50) on Human plasma kallikrein and at Human KLK1 were 56.1 nM and 8.79 µM, respectively.

Take `Cc1cnn(Cc2nc(Cn3cc(C(=O)NCc4ccc5c(N)nccc5c4)c(C(F)(F)F)n3)cs2)c1` [Example 82, 1-[2-(4-Methyl-pyrazol-1-ylmethyl)-thiazol-4-ylmethyl]-3-trifluoromethyl-1H-pyrazole-4-carboxylic acid (1-amino-isoquinolin-6-ylmethyl)-amide]: the half-inhibitory concentration (IC50) at Human plasma kallikrein was found to be 21.2 nM; against Human KLK1, 4.71 µM.

For the molecule `NC(=O)c1cnn(Cc2ccc(Cn3cc(C(=O)NCc4ccc5c(N)nccc5c4)c(C(F)(F)F)n3)cc2)c1` [Example 78, 1-[4-(4-Carbamoyl-pyrazol-1-ylmethyl)-benzyl]-3-trifluoromethyl-1H-pyrazole-4-carboxylic acid (1-amino-isoquinolin-6-ylmethyl)-amide], the 50% inhibitory concentration (IC50) was 91.1 nM on Human plasma kallikrein and greater than 10 µM against Human KLK1.

Turning to `CCOc1ncc(Cn2cc(C(=O)NCc3ccc4c(N)nccc4c3)c(C3CC3)n2)cc1Cl` [Example 94, 1-(5-Chloro-6-ethoxy-pyridin-3-ylmethyl)-3-cyclopropyl-1H-pyrazole-4-carboxylic acid (1-amino-isoquinolin-6-ylmethyl)-amide], the IC50 at Human plasma kallikrein worked out at 53.2 nM; against Human KLK1, 2 µM.

Take `CC(C)Oc1cc(Cn2cc(C(=O)NCc3ccc4c(N)nccc4c3)c(C(F)(F)F)n2)ccn1` [Example 66, 1-(2-Isopropoxy-pyridin-4-ylmethyl)-3-trifluoromethyl-1H-pyrazole-4-carboxylic acid (1-amino-isoquinolin-6-ylmethyl)-amide]: the values for the IC50 on Human plasma kallikrein and against Human KLK1 were 281 nM and greater than 10 µM, respectively.

`Cc1cnn(Cc2ccc(Cn3cc(C(=O)NCc4n[nH]c5ccc(Cl)cc45)c(C(F)(F)F)n3)cc2)c1` [Example 127, 1-[4-(4-Methyl-pyrazol-1-ylmethyl)-benzyl]-3-trifluoromethyl-1H-pyrazole-4-carboxylic acid (5-chloro-1H-indazol-3-ylmethyl)-amide]: the half-maximal inhibitory concentration (IC50) at Human plasma kallikrein is 537 nM; at Human KLK1 it was greater than 10 µM.

In the case of `Nc1nccc2cc(CNC(=O)c3cn(Cc4cnc(N5CCCC5)c(Cl)c4)nc3C3CC3)ccc12` [Example 97, 1-(5-Chloro-6-pyrrolidin-1-yl-pyridin-3-ylmethyl)-3-cyclopropyl-1H-pyrazole-4-carboxylic acid (1-amino-isoquinolin-6-ylmethyl)-amide], the half-inhibitory concentration (IC50) on Human plasma kallikrein worked out at 18.5 nM; on Human KLK1, 3.01 µM.

Turning to `CCOc1cc(Cn2cc(C(=O)NCc3ccc4c(N)nccc4c3)c(C(F)(F)F)n2)cnc1Cl` [Example 74, 1-(6-Chloro-5-ethoxy-pyridin-3-ylmethyl)-3-trifluoromethyl-1H-pyrazole-4-carboxylic acid (1-amino-isoquinolin-6-ylmethyl)-amide], the IC50 is 425 nM on Human plasma kallikrein and 2.77 µM at Human KLK1.

Turning to `Cc1cnn(Cc2ccc(Cn3cc(C(=O)NCc4ccnc5[nH]ccc45)c(C(F)(F)F)n3)cc2)c1` [Example 125, 1-[4-(4-Methyl-pyrazol-1-ylmethyl)-benzyl]-3-trifluoromethyl-1H-pyrazole-4-carboxylic acid (1H-pyrrolo[2,3-b]pyridin-4-ylmethyl)-amide], the figures for the IC50 on Human plasma kallikrein and on Human KLK1 were 4010 nM and greater than 10 µM, respectively.

Turning to `Nc1nccc2cc(CNC(=O)c3cn(Cc4csc(Cn5cccn5)n4)nc3C(F)(F)F)ccc12` [Example 81, 1-(2-Pyrazol-1-ylmethyl-thiazol-4-ylmethyl)-3-trifluoromethyl-1H-pyrazole-4-carboxylic acid (1-amino-isoquinolin-6-ylmethyl)-amide], the IC50 on Human plasma kallikrein amounted to 26.5 nM; against Human KLK1 it was 8.97 µM.

Turning to `Cc1cnn(Cc2ccc(Cn3cc(C(=O)NCc4ccc5c(N)nccc5c4)c(-c4c(C)noc4C)n3)cc2)c1` [Example 20, 3-(3,5-Dimethyl-isoxazol-4-yl)-1-[4-(4-methyl-pyrazol-1-ylmethyl)-benzyl]-1H-pyrazole-4-carboxylic acid (1-amino-isoquinolin-6-ylmethyl)-amide], the IC50 on Human plasma kallikrein was 0.89 nM; on Human KLK1, greater than 10 µM.

Turning to `CCOc1ccc(Cn2cc(C(=O)NCc3ccc4c(N)nccc4c3)c(NC(=O)COC)n2)cn1` [Example 27, 1-(6-Ethoxy-pyridin-3-ylmethyl)-3-(2-methoxy-acetylamino)-1H-pyrazole-4-carboxylic acid (1-amino-isoquinolin-6-ylmethyl)-amide], the IC50 on Human plasma kallikrein worked out at 128 nM; against Human KLK1, 3.2 µM.

Take `Nc1nccc2cc(CNC(=O)c3cn(Cc4cnc(N5CCCC5)nc4)nc3C(F)(F)F)ccc12` [Example 64, 1-(2-Pyrrolidin-1-yl-pyrimidin-5-ylmethyl)-3-trifluoromethyl-1H-pyrazole-4-carboxylic acid (1-amino-isoquinolin-6-ylmethyl)-amide]: the half-inhibitory concentration (IC50) at Human plasma kallikrein came out at 10.4 nM; at Human KLK1 it was 2.79 µM.

As to `Cc1cnn(Cc2ccc(Cn3cc(C(=O)NCc4c(C)nc5[nH]ccc5c4C)c(C4CC4)n3)cc2)c1` [Example 122, 3-Cyclopropyl-1-[4-(4-methyl-pyrazol-1-ylmethyl)-benzyl]-1H-pyrazole-4-carboxylic acid (4,6-dimethyl-1H-pyrrolo[2,3-b]pyridin-5-ylmethyl)-amide], the half-inhibitory concentration (IC50) on Human plasma kallikrein is 101 nM; on Human KLK1, greater than 10 µM.

`Nc1nccc2cc(CNC(=O)c3cn(Cc4ccc(Cn5cccn5)cc4)nc3C(F)(F)F)ccc12` [Example 76, 1-(4-Pyrazol-1-ylmethyl-benzyl)-3-trifluoromethyl-1H-pyrazole-4-carboxylic acid (1-amino-isoquinolin-6-ylmethyl)-amide]: the values for the IC50 on Human plasma kallikrein and on Human KLK1 were 0.92 nM and greater than 1 µM, respectively.

Turning to `Nc1nccc2cc(CNC(=O)c3cn(Cc4ccc(Cn5ccnn5)cc4)nc3C3CC3)ccc12` [Example 91, 3-Cyclopropyl-1-(4-[1,2,3]triazol-1-ylmethyl-benzyl)-1H-pyrazole-4-carboxylic acid (1-amino-isoquinolin-6-ylmethyl)-amide], the 50% inhibitory concentration (IC50) on Human plasma kallikrein is 13.8 nM; against Human KLK1, greater than 10 µM.

As for `Cc1cnn(Cc2ccc(Cn3cc(C(=O)NCc4ccc5c(N)nccc5c4)c(C#N)n3)cc2)c1` [Example 16, 3-Cyano-1-[4-(4-methyl-pyrazol-1-ylmethyl)-benzyl]-1H-pyrazole-4-carboxylic acid (1-amino-isoquinolin-6-ylmethyl)-amide], the IC50 at Human plasma kallikrein was determined as 0.74 nM; at Human KLK1, 5.73 µM.

(Values after patent publication US9533987B2, “Heterocyclic derivates” (KALVISTA PHARMACEUTICALS LIMITED, priority 2013, dated 2017).)
